Source: the supplement of paper PMC10307832

How the values were obtained:
Assay in all cases: relative viability (nuclei count vs DMSO), 5 days (fraction); higher = more cells survive
[1] = compound: COc1cc(-c2nn([C@H]3CC[C@H](N4CCN(C(C)=O)CC4)CC3)c3ncnc(N)c23)ccc1NC(=O)c1cc2ccccc2n1C + NC(=O)Nc1cc(-c2cccc(F)c2)sc1C(=O)N[C@H]1CCCNC1 [AZD7762] (partner 0.2 µM)
How it was run: (§1)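 Cells from lung cancer lines were seeded into 1536-well plates and, one day later, dosed by pin tool. Treatments were either a single drug or a fixed dose of an anchor drug with five library-drug doses (not always all listed) in √10 steps. After 5 days, nuclei were stained in a one-step fixation (final 0.05% Triton X-100, 1% formaldehyde, 1 ug/ml Hoechst) and counted on 4× images, and relative viability is the treated-to-vehicle nuclei ratio, as the median of duplicate plates.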

Midostaurin + Vorinostat = compound: CO[C@@H]1[C@H](N(C)C(=O)c2ccccc2)C[C@H]2O[C@]1(C)n1c3ccccc3c3c4c(c5c6ccccc6n2c5c31)C(=O)NC4 [Midostaurin] + O=C(CCCCCCC(=O)Nc1ccccc1)NO [Vorinostat] (partner 1 µM)
How it was run: as §1

Midostaurin + Pictilisib = compound: CO[C@@H]1[C@H](N(C)C(=O)c2ccccc2)C[C@H]2O[C@]1(C)n1c3ccccc3c3c4c(c5c6ccccc6n2c5c31)C(=O)NC4 [Midostaurin] + CS(=O)(=O)N1CCN(Cc2cc3nc(-c4cccc5[nH]ncc45)nc(N4CCOCC4)c3s2)CC1 [Pictilisib] (partner 1 µM)
How it was run: as §1

Midostaurin + Foretinib = compound: CO[C@@H]1[C@H](N(C)C(=O)c2ccccc2)C[C@H]2O[C@]1(C)n1c3ccccc3c3c4c(c5c6ccccc6n2c5c31)C(=O)NC4 [Midostaurin] + COc1cc2c(Oc3ccc(NC(=O)C4(C(=O)Nc5ccc(F)cc5)CC4)cc3F)ccnc2cc1OCCCN1CCOCC1 [Foretinib] (partner 0.25 µM)
How it was run: as §1

[2] = compound: COc1cc(-c2nn([C@H]3CC[C@H](N4CCN(C(C)=O)CC4)CC3)c3ncnc(N)c23)ccc1NC(=O)c1cc2ccccc2n1C + CC(=O)Nc1cccc(-n2c(=O)n(C3CC3)c(=O)c3c(Nc4ccc(I)cc4F)n(C)c(=O)c(C)c32)c1 [Trametinib] (partner 0.02 µM)
How it was run: as §1

| Cell Line | relative viability ([1]; first compound 0.0128 µM) | relative viability ([1]; first compound 0.04048 µM) | relative viability ([1]; first compound 0.128 µM) | relative viability ([1]; first compound 1.28 µM) | relative viability (Midostaurin + Vorinostat; first compound 0.01 µM) | relative viability (Midostaurin + Vorinostat; first compound 0.03162 µM) | relative viability (Midostaurin + Vorinostat; first compound 0.1 µM) | relative viability (Midostaurin + Vorinostat; first compound 0.3162 µM) | relative viability (Midostaurin + Pictilisib; first compound 0.01 µM) | relative viability (Midostaurin + Pictilisib; first compound 0.03162 µM) | relative viability (Midostaurin + Pictilisib; first compound 0.1 µM) | relative viability (Midostaurin + Pictilisib; first compound 0.3162 µM) | relative viability (Midostaurin + Foretinib; first compound 0.01 µM) | relative viability (Midostaurin + Foretinib; first compound 0.03162 µM) | relative viability (Midostaurin + Foretinib; first compound 0.1 µM) | relative viability (Midostaurin + Foretinib; first compound 0.3162 µM) | relative viability ([2]; first compound 0.0128 µM) | relative viability ([2]; first compound 0.04048 µM) | relative viability ([2]; first compound 0.128 µM) | relative viability ([2]; first compound 1.28 µM) |
| --- | --- | --- | --- | --- | --- | --- | --- | --- | --- | --- | --- | --- | --- | --- | --- | --- | --- | --- | --- | --- |
| ChaGo-K-1 | 0.829 | 0.779 | 0.818 | 0.72 | 0.746 | 0.811 | 0.619 | 0.714 | 0.688 | 1.24 | 0.712 | 1.1 | 0.888 | 0.99 | 0.785 | 0.946 | 0.872 | 0.904 | 0.722 | 0.68 |
| EBC-1 | – | – | – | – | – | – | – | – | 0.504 | 0.272 | 0.294 | 0.196 | 0.104 | 0.103 | 0.112 | 0.102 | – | – | – | – |
| EKVX | 0.79 | 0.691 | 0.685 | 0.385 | 0.735 | 0.714 | 0.808 | 0.583 | 0.487 | 0.367 | 0.473 | 0.483 | 0.824 | 0.76 | 0.702 | 0.78 | 0.406 | 0.236 | 0.305 | 0.236 |
| EMC-BAC-2 | 1.13 | 1.28 | 1.09 | 1.09 | 0.415 | 0.437 | 0.407 | 0.476 | 0.559 | 0.454 | 0.494 | 0.475 | 0.961 | 0.828 | 0.822 | 0.708 | 0.901 | 0.537 | 0.834 | 1.02 |
| EPLC-272H | 0.253 | 0.207 | 0.215 | 0.142 | 0.47 | 0.436 | 0.426 | 0.393 | 0.338 | 0.305 | 0.295 | 0.298 | 0.822 | – | 0.653 | 0.606 | 0.331 | 0.205 | 0.278 | 0.24 |
| H3255 | 0.879 | 0.87 | 0.894 | 0.633 | 0.86 | 0.615 | 0.765 | 0.744 | 0.503 | 0.487 | 0.471 | 0.459 | 0.894 | 0.793 | 0.833 | 0.959 | 0.611 | 0.44 | 0.613 | 0.499 |
| HARA | 0.257 | 0.432 | 0.124 | 0.281 | 0.482 | 0.603 | 0.466 | 0.505 | 0.469 | 0.416 | 0.295 | 0.333 | 0.904 | 0.887 | 0.91 | 0.891 | 0.617 | 0.273 | 0.56 | 0.418 |
| HCC-15 | 1.46 | 1.24 | 1.21 | 1.28 | 0.942 | 0.806 | 0.785 | 0.765 | 0.785 | 0.705 | 0.762 | 0.823 | 1.08 | 0.856 | 1.04 | 1.05 | 0.421 | 0.269 | 0.394 | 0.294 |
| HCC-44 | 1.13 | 1.17 | 0.981 | 1.19 | 1.08 | 1.06 | 1.11 | 1.16 | 0.571 | 0.576 | 0.692 | 0.327 | – | – | – | – | 1.19 | 0.716 | 1.07 | 1.03 |
